# pIC50: −log10 of the molar value.
# Biological target: T1, Catenin beta-1 (Homo sapiens, UniProt P35222)
# T1 sequence (P35222 whole entry): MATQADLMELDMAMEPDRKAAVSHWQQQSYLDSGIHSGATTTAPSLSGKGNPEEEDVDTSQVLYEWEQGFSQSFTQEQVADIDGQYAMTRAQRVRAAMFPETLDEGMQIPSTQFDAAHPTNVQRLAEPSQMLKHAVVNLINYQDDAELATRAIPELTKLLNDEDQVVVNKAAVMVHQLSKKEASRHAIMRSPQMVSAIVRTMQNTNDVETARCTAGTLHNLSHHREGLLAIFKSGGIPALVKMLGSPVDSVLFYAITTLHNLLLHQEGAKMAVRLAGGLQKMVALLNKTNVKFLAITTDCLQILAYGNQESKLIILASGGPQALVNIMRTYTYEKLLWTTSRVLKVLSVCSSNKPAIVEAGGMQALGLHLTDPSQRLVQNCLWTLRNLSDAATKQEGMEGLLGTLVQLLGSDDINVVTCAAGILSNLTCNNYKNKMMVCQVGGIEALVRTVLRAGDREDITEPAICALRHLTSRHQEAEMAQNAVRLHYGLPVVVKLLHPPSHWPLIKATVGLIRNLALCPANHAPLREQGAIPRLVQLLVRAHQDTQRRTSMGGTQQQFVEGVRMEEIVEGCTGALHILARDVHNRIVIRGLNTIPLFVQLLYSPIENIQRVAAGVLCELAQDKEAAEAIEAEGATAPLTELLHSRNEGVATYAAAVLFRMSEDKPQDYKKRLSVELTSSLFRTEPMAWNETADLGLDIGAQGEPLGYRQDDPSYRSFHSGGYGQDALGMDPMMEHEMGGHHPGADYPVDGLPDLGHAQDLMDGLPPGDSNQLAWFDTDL
# Assay: Inhibition of GST-tagged Tcf4 binding to human beta-catenin after 2 hrs by ELISA
row,SMILES,pIC50
1,COc1c(C[C@@H](C)OC(=O)Oc2ccc(O)cc2)c2c3c(C[C@@H](C)OC(=O)c4ccccc4)c(OC)c(=O)c4c(O)cc(OC)c(c5c(OC)cc(O)c(c1=O)c52)c43 [CALPHOSTIN C],> 5.00
2,COc1c(CC(C)OC(=O)c2c(C)cc(O)cc2O)c2c3c(CC(C)OC(=O)c4c(C)cc(O)cc4O)c(OC)c(=O)c4c(O)cc(OC)c(c5c(OC)cc(O)c(c1=O)c52)c43 (centres undefined),> 5.00
3,COC(=O)c1c(C)cc2c(c1O)[C@]1(O)C(=O)c3cc4c(c(O)c3C(=O)[C@]1(OC)[C@H](O)C2)C(=O)C=C(N[C@@H]1O[C@H](C)[C@@H](OC)[C@H](O)[C@@H]1OC)C4=O,> 5.00
4,CCCC(=O)c1cc2c(c(O)c1C)C(=O)C(=O)c1c(O)cccc1-2,> 5.00

# Source: ChEMBL document CHEMBL2396623, “Direct targeting of β-catenin: Inhibition of protein-protein interactions for the inactivation of Wnt signaling” (Bioorg Med Chem, 2013)
